{
  "source": "patent US4042683A",
  "about": "“Rifamycins P, Q and U” (Gruppo Lepetit S.p.A., priority 1974, dated 1977)",
  "key": {"[1]": {"tested_on": "Staphylococcus aureus Tour", "assay": "in vitro activity spectrum, minimal inhibition concentration, Staphylococcus aureus Tour", "assay_type": "cell-based", "source_text": "(§1) | Minimal inhibiton concentration (μg/ml)"}, "[2]": {"tested_on": "Streptococcus hemolyticus C 203", "assay": "in vitro activity spectrum, minimal inhibition concentration, Streptococcus hemolyticus C 203", "assay_type": "cell-based", "source_text": "as §1"}, "[3]": {"tested_on": "Streptococcus faecalis ATCC 10541", "assay": "in vitro activity spectrum, minimal inhibition concentration, Streptococcus faecalis ATCC 10541", "assay_type": "cell-based", "source_text": "as §1"}, "[4]": {"tested_on": "Klebsiella pneumoniae ATCC 10031", "assay": "in vitro activity spectrum, minimal inhibition concentration, Klebsiella pneumoniae ATCC 10031", "assay_type": "cell-based", "source_text": "as §1"}, "[5]": {"tested_on": "Diplococcus pneumoniae UC 41", "assay": "in vitro activity spectrum, minimal inhibition concentration, Diplococcus pneumoniae UC 41", "assay_type": "cell-based", "source_text": "as §1"}, "[6]": {"tested_on": "Escherichia coli ATCC 10536", "assay": "in vitro activity spectrum, minimal inhibition concentration, Escherichia coli ATCC 10536", "assay_type": "cell-based", "source_text": "as §1"}, "[7]": {"tested_on": "Mycobacterium tub. H37Rv ATCC 9360", "assay": "in vitro activity spectrum, minimal inhibition concentration, Mycobacterium tub. H37Rv ATCC 9360", "assay_type": "cell-based", "source_text": "as §1"}, "[8]": {"tested_on": "Proteus vulgaris X 19 H ATCC 881", "assay": "in vitro activity spectrum, minimal inhibition concentration, Proteus vulgaris X 19 H ATCC 881", "assay_type": "cell-based", "source_text": "as §1"}, "[9]": {"tested_on": "Pseudomonas aeruginosa ATCC 10145", "assay": "in vitro activity spectrum, minimal inhibition concentration, Pseudomonas aeruginosa ATCC 10145", "assay_type": "cell-based", "source_text": "as §1"}, "[10]": {"tested_on": "Staphylococcus aureus Tour rifampicin-resistant", "assay": "in vitro activity spectrum, minimal inhibition concentration, Staphylococcus aureus Tour rifampicin-resistant"}, "[11]": {"tested_on": "Staphylococcus aureus ATCC 6538", "assay": "in vitro activity spectrum, minimal inhibition concentration, Staphylococcus aureus ATCC 6538", "assay_type": "cell-based", "details": "for MIC: Staphylococcus aureus, read-out: Minimal inhibiton concentration", "source_text": "as §1"}, "Staphylococcus aureus": {"tested_on": "Staphylococcus aureus", "assay": "experiments on mice injected with Staphylococcus aureus", "assay_type": "in vivo", "source_text": "The novel compounds are active also in the laboratory animals injected with Staphylococcus aureus, Escherichia coli. The following table reports the results of representative experiments on mice in comparison with a known natural rifamycin, i.e. rifamycin SV."}, "Bacillus Subtilis": {"tested_on": "Bacillus Subtilis", "assay": "agar disc inhibition of growth of Bacillus subtilis", "assay_type": "cell-based", "details": "Penassay agar pH 7.2, disc of agar carrying a single colony", "description": "A suspension of spores of Streptomyces mediterranei ATCC 13685 was treated with N-methyl-N'-nitro-N-nitrosoguanidine at 1 mg/ml in a pH 9.0 tris(hydroxymethyl)aminomethane buffer for 60 minutes at 28° C. The mutagen-treated spores were then washed and plated onto Petri dishes containing Bennett agar. After 14 days incubation at 28° C., the surviving colonies were picked off and examined for their ability to inhibit the growth of Bacillus Subtilis in the following manner: a disc of agar (diameter 4-8 mm) carrying a single colony was transferred onto a Petri disch containing […] agar at pH 7.2 previously seeded at 2% (v/v) with Bacillus Subtilis. […] Three strains were isolated in this way and were originally given our internal code D-2, MM18-6 and M-36. Samples of these microorganisms were deposited with the ATCC where they are identified respectively as Nocardia mediterranea ATCC 31064 Nocardia mediterranea ATCC 31065 and Nocardia mediterranea ATCC 31066."}},
  "note": "Read-outs that look alike come from different tables or passages of the source.",
  "data": [
    {"compound": "COC1/C=C\\OC2(C)Oc3c(C)c(O)c4c(O)c(c5sc(CO)nc5c4c3C2=O)NC(=O)/C(C)=C/C=C/C(C)C(O)C(C)C(O)C(C)C(OC(C)=O)C1C", "note": "(stereo not drawn) [Rifamycin Q]", "values": [
      {"measurement": "Minimal inhibiton concentration", "setting": "[1]", "result": 0.06, "unit": "µg/mL"},
      {"measurement": "Minimal inhibiton concentration", "setting": "[2]", "result": 0.019, "unit": "µg/mL"},
      {"measurement": "Minimal inhibiton concentration", "setting": "[3]", "result": 0.312, "unit": "µg/mL"},
      {"measurement": "Minimal inhibiton concentration", "setting": "[4]", "result": 50, "unit": "µg/mL"},
      {"measurement": "Minimal inhibiton concentration", "setting": "[5]", "result": 0.039, "unit": "µg/mL"},
      {"measurement": "Minimal inhibiton concentration", "setting": "[6]", "result": 12.5, "unit": "µg/mL"},
      {"measurement": "Minimal inhibiton concentration", "setting": "[7]", "result": 2.5, "unit": "µg/mL"},
      {"measurement": "Minimal inhibiton concentration", "setting": "[8]", "result": 12.5, "unit": "µg/mL"},
      {"measurement": "Minimal inhibiton concentration", "setting": "[9]", "result": 50, "unit": "µg/mL"},
      {"measurement": "Minimal inhibiton concentration", "setting": "[10]; Staphylococcus aureus Tour rifampicin-resistant", "result": "> 100", "unit": "µg/mL"},
      {"measurement": "Minimal inhibiton concentration", "setting": "[11]; Staphylococcus aureus ATCC 6538", "result": 0.039, "unit": "µg/mL"},
      {"measurement": "Minimal inhibiton concentration", "setting": "[11]; Staphylococcus aureus ATCC 6538 (20% bovine serum)", "result": 0.078, "unit": "µg/mL"},
      {"measurement": "ED50", "setting": "Staphylococcus aureus; s.c.", "result": 8, "unit": "mg/kg"}
    ]},
    {"compound": "COC1C=COC2(C)Oc3c(C)c(O)c4c(c3C2=O)C(=O)C=C(NC(=O)C(CO)=CC=CC(C)C(O)C(C)C(O)C(C)C(OC(C)=O)C1C)C4=O", "note": "(stereo not drawn) [Rifamycin R]", "values": [
      {"measurement": "MIC", "setting": "[1]; read-out: Minimal inhibiton concentration", "result": 0.00235, "unit": "µg/mL"},
      {"measurement": "MIC", "setting": "[2]; Streptococcus pyogenes, C203, read-out: Minimal inhibiton concentration", "result": 0.00312, "unit": "µg/mL"},
      {"measurement": "MIC", "setting": "[3]; Enterococcus faecalis, ATCC10541, read-out: Minimal inhibiton concentration", "result": 0.19, "unit": "µg/mL"},
      {"measurement": "MIC", "setting": "[5]; Streptococcus pneumoniae, UC41, read-out: Minimal inhibiton concentration", "result": 0.00625, "unit": "µg/mL"},
      {"measurement": "MIC", "setting": "[6]; ATCC10536, read-out: Minimal inhibiton concentration", "result": 50, "unit": "µg/mL"},
      {"measurement": "MIC", "setting": "[7]; Mycobacterium tuberculosis, read-out: Minimal inhibiton concentration", "result": 0.1, "unit": "µg/mL"},
      {"measurement": "MIC", "setting": "[8]; ATCC881, read-out: Minimal inhibiton concentration", "result": 12.5, "unit": "µg/mL"},
      {"measurement": "MIC", "setting": "[9]; ATCC10145, read-out: Minimal inhibiton concentration", "result": 100, "unit": "µg/mL"},
      {"measurement": "MIC", "setting": "[10]; Staphylococcus aureus, read-out: Minimal inhibiton concentration", "result": 100, "unit": "µg/mL"},
      {"measurement": "MIC", "setting": "[11]; ATCC6538, Staphylococcus aureus ATCC 6538 (20% bovine serum)", "result": 0.0047, "unit": "µg/mL"},
      {"measurement": "MIC", "setting": "[11]; ATCC6538, Staphylococcus aureus ATCC 6538", "result": 0.019, "unit": "µg/mL"}
    ]},
    {"compound": "COC1C=COC2(C)Oc3c(C)c(O)c4c(O)c(cc(OCC(=O)O)c4c3C2=O)NC(=O)C(C)=CC=CC(C)C(O)C(C)C(O)C(C)C(OC(C)=O)C1C", "note": "(stereo not drawn) [rifamycin B]", "values": [
      {"measurement": "inhibition of the growth of Bacillus subtilis", "setting": "Bacillus Subtilis", "result": "practically inactive"}
    ]},
    {"compound": "CO[C@H]1/C=C/O[C@@]2(C)Oc3c(C)c(O)c4c(O)c(cc(O)c4c3C2=O)NC(=O)/C(C)=C\\C=C\\[C@H](C)[C@H](O)[C@@H](C)[C@@H](O)[C@@H](C)[C@H](OC(C)=O)[C@@H]1C", "note": "[rifamycin SV]", "values": [
      {"measurement": "ED50", "setting": "Staphylococcus aureus; po, o.s., read-out: ED50", "result": 74, "unit": "mg/kg"},
      {"measurement": "ED50", "setting": "Staphylococcus aureus; sc, read-out: ED50", "result": 17, "unit": "mg/kg"}
    ]}
  ]
}
